# Results: PMC8909834, “An Orally Bioavailable and Highly Efficacious Inhibitor of CDK9/FLT3 for the Treatment of Acute Myeloid Leukemia” (Cancers, 2022)
# Assays:
# Experiment in all cases: Kinase Hotspot radiolabel assay
# Type in all cases: biochemical
# Conditions in all cases: read-out: % Residual Activity
# CDK9/cyclin K = molecular target: T1, CDK9/cyclin K (Homo sapiens, UniProt P50750)
# T1 construct: purchased Reaction Biology Corporation (Kinase HotSpot)
# How it was run: (§1)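 Step one: screen at 1 µM across 369 kinases (Hotspot, radiolabel detection). Step two: Ki determination for kinases with >90% inhibition.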
# CK1g2 = molecular target: T2, CK1g2 (Homo sapiens, UniProt P78368)
# T2 construct: purchased Reaction Biology Corporation (Kinase HotSpot)
# How it was run: as §1
# RSK2 = molecular target: T3, RSK2 (Homo sapiens, UniProt P51812)
# T3 construct: purchased Reaction Biology Corporation (Kinase HotSpot)
# How it was run: as §1
# DDR1 = molecular target: T4, DDR1 (Homo sapiens, UniProt Q08345)
# T4 construct: purchased Reaction Biology Corporation (Kinase HotSpot)
# T4 sequence (Q08345 19-913): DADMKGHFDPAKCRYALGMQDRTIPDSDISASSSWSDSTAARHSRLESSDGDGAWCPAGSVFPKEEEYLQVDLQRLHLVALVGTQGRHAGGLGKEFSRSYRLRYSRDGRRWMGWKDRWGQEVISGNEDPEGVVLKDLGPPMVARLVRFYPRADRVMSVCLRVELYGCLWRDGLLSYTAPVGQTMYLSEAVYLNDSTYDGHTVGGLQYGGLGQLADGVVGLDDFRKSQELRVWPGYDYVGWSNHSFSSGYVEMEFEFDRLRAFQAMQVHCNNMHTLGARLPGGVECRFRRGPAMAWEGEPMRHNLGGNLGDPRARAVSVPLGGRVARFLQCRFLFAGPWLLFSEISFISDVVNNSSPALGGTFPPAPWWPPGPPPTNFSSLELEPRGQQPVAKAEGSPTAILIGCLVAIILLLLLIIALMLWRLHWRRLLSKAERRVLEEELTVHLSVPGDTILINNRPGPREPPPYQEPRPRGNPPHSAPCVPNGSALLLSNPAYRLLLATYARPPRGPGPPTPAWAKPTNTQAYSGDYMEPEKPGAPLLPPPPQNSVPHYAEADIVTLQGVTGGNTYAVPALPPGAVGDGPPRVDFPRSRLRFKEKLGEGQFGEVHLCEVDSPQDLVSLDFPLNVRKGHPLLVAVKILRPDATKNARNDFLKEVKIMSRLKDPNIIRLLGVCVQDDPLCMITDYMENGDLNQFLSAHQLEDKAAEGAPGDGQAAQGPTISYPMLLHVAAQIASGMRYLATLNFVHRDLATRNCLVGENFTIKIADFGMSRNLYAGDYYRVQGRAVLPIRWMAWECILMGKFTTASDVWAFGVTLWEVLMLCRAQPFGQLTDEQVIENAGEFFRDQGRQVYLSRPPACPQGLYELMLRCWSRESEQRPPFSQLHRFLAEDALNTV
# How it was run: as §1
# ULK2 = molecular target: T5, ULK2 (Homo sapiens, UniProt Q8IYT8)
# T5 construct: purchased Reaction Biology Corporation (Kinase HotSpot)
# T5 sequence (Q8IYT8 whole entry): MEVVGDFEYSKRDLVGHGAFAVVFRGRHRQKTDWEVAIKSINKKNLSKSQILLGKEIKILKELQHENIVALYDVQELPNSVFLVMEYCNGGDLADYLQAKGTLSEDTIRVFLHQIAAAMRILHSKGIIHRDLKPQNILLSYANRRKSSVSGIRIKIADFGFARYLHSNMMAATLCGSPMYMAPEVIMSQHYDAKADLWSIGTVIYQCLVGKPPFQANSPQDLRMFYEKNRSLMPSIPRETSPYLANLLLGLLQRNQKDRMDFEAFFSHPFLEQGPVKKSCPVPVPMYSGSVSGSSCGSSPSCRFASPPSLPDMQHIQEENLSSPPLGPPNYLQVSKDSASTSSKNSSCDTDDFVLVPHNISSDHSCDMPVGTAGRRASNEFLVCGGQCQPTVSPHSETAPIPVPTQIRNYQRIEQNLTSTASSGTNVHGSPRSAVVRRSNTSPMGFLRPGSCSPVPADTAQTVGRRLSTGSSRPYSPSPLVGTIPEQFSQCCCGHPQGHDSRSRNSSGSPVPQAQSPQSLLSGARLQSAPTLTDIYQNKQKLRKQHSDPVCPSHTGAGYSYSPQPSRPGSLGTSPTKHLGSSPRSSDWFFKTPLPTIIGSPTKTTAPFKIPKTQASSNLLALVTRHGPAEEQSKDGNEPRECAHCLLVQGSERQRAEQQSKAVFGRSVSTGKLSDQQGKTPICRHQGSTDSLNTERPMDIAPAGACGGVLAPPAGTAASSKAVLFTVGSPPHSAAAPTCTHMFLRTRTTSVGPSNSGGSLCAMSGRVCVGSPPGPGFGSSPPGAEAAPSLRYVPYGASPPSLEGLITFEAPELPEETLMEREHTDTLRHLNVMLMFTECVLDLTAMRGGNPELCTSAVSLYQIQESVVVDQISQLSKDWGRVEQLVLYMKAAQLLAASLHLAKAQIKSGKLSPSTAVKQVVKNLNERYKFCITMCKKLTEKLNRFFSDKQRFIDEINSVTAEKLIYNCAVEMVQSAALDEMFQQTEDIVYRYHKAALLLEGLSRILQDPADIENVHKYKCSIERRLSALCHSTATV
# How it was run: as §1
# EPHB1 = molecular target: T6, EPHB1 (Homo sapiens, UniProt P54762)
# T6 construct: purchased Reaction Biology Corporation (Kinase HotSpot)
# How it was run: as §1
# ROS/ROS1 = molecular target: T7, ROS/ROS1 (Homo sapiens, UniProt P08922)
# T7 construct: purchased Reaction Biology Corporation (Kinase HotSpot)
# How it was run: as §1
# STK38/NDR1 = molecular target: T8, STK38/NDR1 (Homo sapiens, UniProt Q15208)
# T8 construct: purchased Reaction Biology Corporation (Kinase HotSpot)
# How it was run: as §1
# P38g = molecular target: T9, P38g (Homo sapiens, UniProt P53778)
# T9 construct: purchased Reaction Biology Corporation (Kinase HotSpot)
# How it was run: as §1
# NEK4 = molecular target: T10, NEK4 (Homo sapiens, UniProt P51957)
# T10 construct: purchased Reaction Biology Corporation (Kinase HotSpot)
# T10 sequence (P51957 whole entry): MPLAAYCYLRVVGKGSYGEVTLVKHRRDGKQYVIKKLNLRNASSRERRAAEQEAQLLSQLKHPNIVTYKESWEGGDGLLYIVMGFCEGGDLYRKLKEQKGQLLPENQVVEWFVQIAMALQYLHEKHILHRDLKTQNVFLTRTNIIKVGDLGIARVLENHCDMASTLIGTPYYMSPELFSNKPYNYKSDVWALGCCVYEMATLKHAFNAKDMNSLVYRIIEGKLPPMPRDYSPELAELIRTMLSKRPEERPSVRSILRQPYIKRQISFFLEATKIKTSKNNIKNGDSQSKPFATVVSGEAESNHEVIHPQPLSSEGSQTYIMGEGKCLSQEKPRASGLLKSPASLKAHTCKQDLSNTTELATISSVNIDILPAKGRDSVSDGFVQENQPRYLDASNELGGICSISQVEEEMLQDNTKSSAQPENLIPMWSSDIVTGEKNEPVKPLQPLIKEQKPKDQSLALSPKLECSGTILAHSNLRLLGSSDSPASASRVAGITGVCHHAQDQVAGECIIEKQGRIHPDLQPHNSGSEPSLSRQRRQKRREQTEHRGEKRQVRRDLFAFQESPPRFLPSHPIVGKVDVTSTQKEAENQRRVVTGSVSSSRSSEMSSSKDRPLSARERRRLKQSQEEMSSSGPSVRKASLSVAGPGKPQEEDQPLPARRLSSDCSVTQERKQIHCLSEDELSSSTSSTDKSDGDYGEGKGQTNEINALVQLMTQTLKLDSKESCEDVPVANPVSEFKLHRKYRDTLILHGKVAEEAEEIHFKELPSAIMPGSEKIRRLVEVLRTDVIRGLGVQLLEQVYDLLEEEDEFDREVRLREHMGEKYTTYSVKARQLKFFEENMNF
# How it was run: as §1
# MEKK2 = molecular target: T11, MEKK2 (Homo sapiens, UniProt Q9Y2U5)
# T11 construct: purchased Reaction Biology Corporation (Kinase HotSpot)
# How it was run: as §1
# SIK1 = molecular target: T12, SIK1 (Homo sapiens, UniProt P57059)
# T12 construct: purchased Reaction Biology Corporation (Kinase HotSpot)
# How it was run: as §1
# MEK3 = molecular target: T13, MEK3 (Homo sapiens, UniProt P46734)
# T13 construct: purchased Reaction Biology Corporation (Kinase HotSpot)
# T13 sequence (P46734 whole entry): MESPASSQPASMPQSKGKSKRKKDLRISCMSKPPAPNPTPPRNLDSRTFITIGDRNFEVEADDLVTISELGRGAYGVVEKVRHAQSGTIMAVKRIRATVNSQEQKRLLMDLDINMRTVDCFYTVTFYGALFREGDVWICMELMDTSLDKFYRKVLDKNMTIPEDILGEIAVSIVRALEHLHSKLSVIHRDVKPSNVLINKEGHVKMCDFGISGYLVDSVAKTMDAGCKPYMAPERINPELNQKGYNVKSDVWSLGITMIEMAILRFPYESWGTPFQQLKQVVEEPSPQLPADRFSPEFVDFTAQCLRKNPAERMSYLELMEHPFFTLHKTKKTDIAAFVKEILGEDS
# How it was run: as §1
# MLK3/MAP3K11 = molecular target: T14, MLK3/MAP3K11 (Homo sapiens, UniProt Q16584)
# T14 construct: purchased Reaction Biology Corporation (Kinase HotSpot)
# How it was run: as §1
# MAPKAPK5/PRAK = molecular target: T15, MAPKAPK5/PRAK (Homo sapiens, UniProt Q8IW41)
# T15 construct: purchased Reaction Biology Corporation (Kinase HotSpot)
# How it was run: as §1
# TAOK2/TAO1 = molecular target: T16, TAOK2/TAO1 (Homo sapiens, UniProt Q9UL54)
# T16 construct: purchased Reaction Biology Corporation (Kinase HotSpot)
# How it was run: as §1
# LIMK2 = molecular target: T17, LIMK2 (Homo sapiens, UniProt P53671)
# T17 construct: purchased Reaction Biology Corporation (Kinase HotSpot)
# How it was run: as §1
# NEK7 = molecular target: T18, NEK7 (Homo sapiens, UniProt Q8TDX7)
# T18 construct: purchased Reaction Biology Corporation (Kinase HotSpot)
# How it was run: as §1
# c-Kit = molecular target: T19, c-Kit (Homo sapiens, UniProt P10721)
# T19 construct: purchased Reaction Biology Corporation (Kinase HotSpot)
# How it was run: as §1
# MARK3 = molecular target: T20, MARK3 (Homo sapiens, UniProt P27448)
# T20 construct: purchased Reaction Biology Corporation (Kinase HotSpot)
# How it was run: as §1
# PKG2/PRKG2 = molecular target: T21, PKG2/PRKG2 (Homo sapiens, UniProt Q13237)
# T21 construct: purchased Reaction Biology Corporation (Kinase HotSpot)
# How it was run: as §1
# PHKg1 = molecular target: T22, PHKg1 (Homo sapiens, UniProt Q16816)
# T22 construct: purchased Reaction Biology Corporation (Kinase HotSpot)
# How it was run: as §1
# DYRK2 = molecular target: T23, DYRK2 (Homo sapiens, UniProt Q92630)
# T23 construct: purchased Reaction Biology Corporation (Kinase HotSpot)
# How it was run: as §1
# IKKa/CHUK = molecular target: T24, IKKa/CHUK (Homo sapiens, UniProt O15111)
# T24 construct: purchased Reaction Biology Corporation (Kinase HotSpot)
# How it was run: as §1
# MST4 = molecular target: T25, MST4 (Homo sapiens, UniProt Q9P289)
# T25 construct: purchased Reaction Biology Corporation (Kinase HotSpot)
# How it was run: as §1
# BRAF = molecular target: T26, BRAF (Homo sapiens, UniProt P15056)
# T26 construct: purchased Reaction Biology Corporation (Kinase HotSpot)
# How it was run: as §1
# ZAK/MLTK = molecular target: T27, ZAK/MLTK (Homo sapiens, UniProt Q9NYL2)
# T27 construct: purchased Reaction Biology Corporation (Kinase HotSpot)
# How it was run: as §1
# PKCb2 = molecular target: T28, PKCb2 (Homo sapiens, UniProt P05771)
# T28 construct: purchased Reaction Biology Corporation (Kinase HotSpot)
# T28 sequence (P05771 1-673 isoform P05771-2): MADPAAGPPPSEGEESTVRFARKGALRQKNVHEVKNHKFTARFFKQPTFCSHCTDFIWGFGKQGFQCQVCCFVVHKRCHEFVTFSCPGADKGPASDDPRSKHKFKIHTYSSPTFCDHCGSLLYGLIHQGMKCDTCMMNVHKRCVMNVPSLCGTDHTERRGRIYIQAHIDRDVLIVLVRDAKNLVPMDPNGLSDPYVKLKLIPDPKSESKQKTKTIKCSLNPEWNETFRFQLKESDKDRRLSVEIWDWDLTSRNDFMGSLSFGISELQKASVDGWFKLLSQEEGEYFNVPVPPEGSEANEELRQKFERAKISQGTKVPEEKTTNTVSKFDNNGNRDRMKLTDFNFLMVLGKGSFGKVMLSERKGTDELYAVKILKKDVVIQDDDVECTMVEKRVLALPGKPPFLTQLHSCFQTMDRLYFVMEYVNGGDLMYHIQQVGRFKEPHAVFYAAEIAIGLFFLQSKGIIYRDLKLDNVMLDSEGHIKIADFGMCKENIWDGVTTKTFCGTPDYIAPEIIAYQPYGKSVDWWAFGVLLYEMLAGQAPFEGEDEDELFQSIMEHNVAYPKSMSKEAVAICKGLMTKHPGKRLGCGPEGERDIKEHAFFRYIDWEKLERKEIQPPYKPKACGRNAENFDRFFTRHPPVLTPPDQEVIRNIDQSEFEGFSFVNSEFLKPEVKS
# How it was run: as §1
# ULK1 = molecular target: T29, ULK1 (Homo sapiens, UniProt O75385)
# T29 construct: purchased Reaction Biology Corporation (Kinase HotSpot)
# T29 sequence (O75385 whole entry): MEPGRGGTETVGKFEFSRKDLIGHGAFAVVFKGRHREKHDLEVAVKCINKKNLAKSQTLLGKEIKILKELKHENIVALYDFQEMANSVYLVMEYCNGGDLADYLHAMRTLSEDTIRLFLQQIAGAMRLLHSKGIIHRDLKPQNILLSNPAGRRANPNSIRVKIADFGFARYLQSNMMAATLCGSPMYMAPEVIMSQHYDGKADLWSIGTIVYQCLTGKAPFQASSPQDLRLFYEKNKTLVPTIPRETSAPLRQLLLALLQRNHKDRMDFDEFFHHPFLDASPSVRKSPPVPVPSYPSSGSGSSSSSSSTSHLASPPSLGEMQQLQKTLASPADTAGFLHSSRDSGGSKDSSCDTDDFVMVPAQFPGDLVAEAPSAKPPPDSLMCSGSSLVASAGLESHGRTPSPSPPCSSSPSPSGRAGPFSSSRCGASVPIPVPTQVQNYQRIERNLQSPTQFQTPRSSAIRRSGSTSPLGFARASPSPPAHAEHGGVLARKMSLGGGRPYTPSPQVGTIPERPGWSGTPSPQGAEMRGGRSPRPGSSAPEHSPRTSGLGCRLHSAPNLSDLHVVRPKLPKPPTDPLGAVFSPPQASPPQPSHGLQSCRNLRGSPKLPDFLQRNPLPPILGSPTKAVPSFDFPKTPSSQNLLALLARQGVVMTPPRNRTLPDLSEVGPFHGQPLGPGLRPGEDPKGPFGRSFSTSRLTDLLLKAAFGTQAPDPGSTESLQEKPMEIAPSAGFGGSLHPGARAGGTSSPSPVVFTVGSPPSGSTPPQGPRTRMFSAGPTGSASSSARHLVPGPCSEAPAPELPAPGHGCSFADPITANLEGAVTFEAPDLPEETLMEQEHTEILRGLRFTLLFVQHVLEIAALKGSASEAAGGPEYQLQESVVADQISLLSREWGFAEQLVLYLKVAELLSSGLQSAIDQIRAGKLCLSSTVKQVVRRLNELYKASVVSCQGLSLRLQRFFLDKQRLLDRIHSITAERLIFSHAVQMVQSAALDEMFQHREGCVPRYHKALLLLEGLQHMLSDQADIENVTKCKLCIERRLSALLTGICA
# How it was run: as §1
# TEC = molecular target: T30, TEC (Homo sapiens, UniProt P42680)
# T30 construct: purchased Reaction Biology Corporation (Kinase HotSpot)
# How it was run: as §1
smiles,measurement,setting,value
Cc1cnc(N[C@H]2CC[C@H](N)CC2)nc1-c1cnc2ccc(-c3ccccc3)cn12 [CDDD11-8],remaining activity at 1 µM,CDK9/cyclin K,6.4%
same,remaining activity at 1 µM,CK1g2,59.4%
same,remaining activity at 1 µM,RSK2,71%
same,remaining activity at 1 µM,DDR1,63.1%
same,remaining activity at 1 µM,ULK2,113%
same,remaining activity at 1 µM,EPHB1,88.1%
same,remaining activity at 1 µM,ROS/ROS1,41.5%
same,remaining activity at 1 µM,STK38/NDR1,93.3%
same,remaining activity at 1 µM,P38g,100%
same,remaining activity at 1 µM,NEK4,78.8%
same,remaining activity at 1 µM,MEKK2,105%
same,remaining activity at 1 µM,SIK1,39.7%
same,remaining activity at 1 µM,MEK3,71.5%
same,remaining activity at 1 µM,MLK3/MAP3K11,45.1%
same,remaining activity at 1 µM,MAPKAPK5/PRAK,99.4%
same,remaining activity at 1 µM,TAOK2/TAO1,45%
same,remaining activity at 1 µM,LIMK2,93.8%
same,remaining activity at 1 µM,NEK7,102%
same,remaining activity at 1 µM,c-Kit,97.5%
same,remaining activity at 1 µM,MARK3,37%
same,remaining activity at 1 µM,PKG2/PRKG2,87%
same,remaining activity at 1 µM,PHKg1,59.2%
same,remaining activity at 1 µM,DYRK2,12.7%
same,remaining activity at 1 µM,IKKa/CHUK,98.5%
same,remaining activity at 1 µM,MST4,92.9%
same,remaining activity at 1 µM,BRAF,99.7%
same,remaining activity at 1 µM,ZAK/MLTK,83.3%
same,remaining activity at 1 µM,PKCb2,121%
same,remaining activity at 1 µM,ULK1,108%
same,remaining activity at 1 µM,TEC,101%
